Where a name gives a salt, the structure may show the parent alone. Read-outs that look alike come from different tables or passages of the source.
Test system: Dengue-2 (Strain New Guinea C)
Experiment: Viral yield assay against Dengue-2 in Vero cells
Type: cell-based, Dengue virus
Details: Dengue virus, read-out: Activity (EC50 class) against Dengue-2 Virus in Vero cells
Procedure, shortened: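 Progeny virus from compound-treated Vero monolayers infected at an MOI of 0.1 is collected after 48 h at 37° C and titered on Vero cells. DMSO serves as control.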

[1] = Vero cells, MOI 0.1, harvested 48 hours post infection

| Compound | EC50 (Vero, 48 h) [µM] | EC50 [1] [µM] |
| --- | --- | --- |
| CN1CCc2nc3sc(C(=O)NC(C)(C)C)c(N)c3cc2C1 [Compound 107, 3-Amino-6-methyl-5,6,7,8-tetrahydro-thieno[2,3-b][1,6]naphthyridine-2-carboxylic acid tart-butylamide] | 5 to 25 | – |
| CCOc1cccc(NC(=O)c2sc3nc4c(cc3c2N)CN(C)CC4)c1 [Compound 108, 3-Amino-6-methyl-5,6,7,8-tetrahydro-thieno[2,3-b][1,6]naphthyridine-2-carboxylic acid (3-ethoxy-phenyl)-amide] | – | 5 to 25 |
| CN1CCc2nc3sc(C(=O)Nc4c(Cl)cccc4Cl)c(N)c3cc2C1 [Compound 109, 3-Amino-6-methyl-5,6,7,8-tetrahydro-thieno[2,3-b][1,6]naphthyridine-2-carboxylic acid (2,6-dichloro-phenyl)-amide] | – | 5 to 25 |
| CN1CCc2nc3sc(C(=O)Nc4ccc(F)c(Cl)c4)c(N)c3cc2C1 [Compound 110, 3-Amino-6-methyl-5,6,7,8-tetrahydro-thieno[2,3-b][1,6]naphthyridine-2-carboxylic acid (3-chloro-4-fluoro-phenyl)-amide] | – | 5 to 25 |
| CN1CCc2nc3sc(C(=O)Nc4ccc(F)cc4F)c(N)c3cc2C1 [Compound 111, 3-Amino-6-methyl-5,6,7,8-tetrahydro-thieno[2,3-b][1,6]naphthyridine-2-carboxylic acid (2,4-difluoro-phenyl)-amide] | – | 5 to 25 |
| CN1CCc2nc3sc(C(=O)Nc4cccc(C#N)c4)c(N)c3cc2C1 [Compound 112, 3-Amino-6-methyl-5,6,7,8-tetrahydro-thieno[2,3-b][1,6]naphthyridine-2-carboxylic acid (3-cyano-phenyl)-amide] | – | 5 to 25 |
| CN1CCc2nc3sc(C(=O)NCc4ccccc4Cl)c(N)c3cc2C1 [Compound 113, 3-Amino-6-methyl-5,6,7,8-tetrahydro-thieno[2,3-b][1,6]naphthyridine-2-carboxylic acid 2-chloro-benzylamide] | – | 5 to 25 |
| Cc1sc(NC(=O)c2sc3nc4c(cc3c2N)CN(C)CC4)c(C#N)c1C [Compound 114, 3-Amino-6-methyl-5,6,7,8-tetrahydro-thieno[2,3-b][1,6]naphthyridine-2-carboxylic acid (3-cyano-4,5-dimethyl-thiophen-2-yl)-amide] | – | 5 to 25 |
| Nc1c(C(=O)Nc2nnc(-c3ccccc3)s2)sc2nc3c(cc12)CCNCC3 [Compound 115, 3-Amino-6,7,8,9-tetrahydro-5H-1-thia-7,10-diaza-cyclohepta[f]indene-2-carboxylic acid (5-phenyl-[1,3,4]thiadiazol-2-yl)-amide hydrochloride] | – | 5 to 25 |
| Nc1c(C(=O)Nc2ccc(F)cc2)sc2nc3c(cc12)CCCCC3 [Compound 116, 3-Amino-6,7,8,9-tetrahydro-5H-1-thia-10-aza-cyclohepta[f]indene-2-carboxylic acid (4-fluoro-phenyl)-amide] | > 25 | – |
| Cc1cccc(NC(=O)c2sc3nc4c(cc3c2N)CCCCC4)c1 [Compound 117, 3-Amino-6,7,8,9-tetrahydro-5H-1-thia-10-aza-cyclohepta[f]indene-2-carboxylic acid m-tolylamide] | – | > 25 |
| COc1ccc(NC(=O)c2sc3nc4c(cc3c2N)CCCCC4)cc1 [Compound 118, 3-Amino-6,7,8,9-tetrahydro-5H-1-thia-10-aza-cyclohepta[f]indene-2-carboxylic acid (4-methoxy-phenyl)-amide] | – | > 25 |
| COc1ccc(NC(=O)c2sc3nc(-c4ccccc4)cc(C(F)(F)F)c3c2N)cc1 [Compound 119, 3-Amino-6-phenyl-4-trifluoromethyl-thieno[2,3-b]pyridine-2-carboxylic acid (4-methoxy-phenyl)-amide] | – | > 25 |
| CC(=O)c1ccc(NC(=O)c2sc3nc(C)cc(C)c3c2N)cc1 [Compound 120, 3-Amino-4,6-dimethyl-thieno[2,3-b]pyridine-2-carboxylic acid (4-acetyl-phenyl)-amide] | – | > 25 |
| Cc1cc(C)c2c(N)c(C(=O)Nc3cccc4cccnc34)sc2n1 [Compound 121, 3-Amino-4,6-dimethyl-thieno[2,3-b]pyridine-2-carboxylic acid quinolin-8-ylamide] | – | > 25 |
| Cc1cc(C)c2c(N)c(C(=O)NC34CC5CC(CC(C5)C3)C4)sc2n1 [Compound 122, 3-Amino-4,6-dimethyl-thieno[2,3-b]pyridine-2-carboxylic acid adamantan-1-ylamide] | – | > 25 |
| Cc1cc(C(F)(F)F)c2c(N)c(C(=O)Nc3ccc(I)cc3C)sc2n1 [Compound 123, 3-Amino-6-methyl-4-trifluoromethyl-thieno[2,3-b]pyridine-2-carboxylic acid (4-iodo-2-methyl-phenyl)-amide] | – | > 25 |
| COCc1cc(C)nc2sc(C(=O)Nc3ccccc3)c(N)c12 [Compound 124, 3-Amino-4-methoxymethyl-6-methyl-thieno[2,3-b]pyridine-2-carboxylic acid phenylamide] | – | > 25 |
| COc1ccc(-c2cc(-c3ccccc3)nc3sc(C(N)=O)c(N)c23)cc1 [Compound 125, 3-Amino-4-(4-methoxy-phenyl)-6-phenyl-thieno[2,3-b]pyridine-2-carboxylic acid amide] | – | > 25 |

| Compound | EC50 (Vero, 48 h) [µM] | EC50 [1] [µM] |
| --- | --- | --- |
| COc1ccc(-c2cc(-c3ccccc3)nc3sc(C(=O)Nc4ccccc4)c(N)c23)cc1 [Compound 126, 3-Amino-4-(4-methoxy-phenyl)-6-phenyl-thieno[2,3-b]pyridine-2-carboxylic acid phenylamide] | – | > 25 |
| Cc1cccc(C)c1NC(=O)c1sc2nc(N)c(C#N)cc2c1N [Compound 127, 3,6-Diamino-5-cyano-thieno[2,3-b]pyridine-2-carboxylic acid (2,6-dimethyl-phenyl)-amide] | – | > 25 |
| Cc1cc(C(F)(F)F)c2c(N)c(C(=O)Nc3cccc4ccccc34)sc2n1 [Compound 128, 3-Amino-6-methyl-4-trifluoromethyl-thieno[2,3-b]pyridine-2-carboxylic acid naphthalen-1-ylamide] | – | > 25 |
| N#Cc1cc2c(N)c(C(=O)Nc3ccc(Cl)c(Cl)c3)sc2nc1N [Compound 129, 3,6-Diamino-5-cyano-thieno[2,3-b]pyridine-2-carboxylic acid (3,4-dichloro-phenyl)-amide] | – | > 25 |
| N#Cc1cc2c(N)c(C(=O)Nc3ccccc3C(F)(F)F)sc2nc1N [Compound 130, 3,6-Diamino-5-cyano-thieno[2,3-b]pyridine-2-carboxylic acid (2-trifluoromethyl-phenyl)-amide] | – | > 25 |
| Cc1cc(C(F)(F)F)nc2sc(C(=O)Nc3ccccc3I)c(N)c12 [Compound 131, 3-Amino-4-methyl-6-trifluoromethyl-thieno[2,3-b]pyridine-2-carboxylic acid (2-iodo-phenyl)-amide] | – | > 25 |
| Cc1ccc(NC(=O)c2sc3nc(C)cc(C(F)(F)F)c3c2N)nc1 [Compound 132, 3-Amino-6-methyl-4-trifluoromethyl-thieno[2,3-b]pyridine-2-carboxylic acid (5-methyl-pyridin-2-yl)-amide] | – | > 25 |
| COC(=O)c1ccccc1NC(=O)c1sc2nc(N)c(C#N)cc2c1N [Compound 133, 2-[(3,6-Diamino-5-cyano-thieno[2,3-b]pyridine-2-carbonyl)-amino]-benzoic acid methyl ester] | – | > 25 |
| N#Cc1cc2c(N)c(C(=O)Nc3ccccc3Br)sc2nc1N [Compound 134, 3,6-Diamino-5-cyano-thieno[2,3-b]pyridine-2-carboxylic acid (2-bromo-phenyl)-amide] | > 25 | – |
| N#Cc1cc2c(N)c(C(=O)Nc3ccccc3F)sc2nc1N [Compound 135, 3,6-Diamino-5-cyano-thieno[2,3-b]pyridine-2-carboxylic acid (2-fluoro-phenyl)-amide] | – | > 25 |
| N#Cc1cc2c(N)c(C(=O)Nc3ccc(S(N)(=O)=O)cc3)sc2nc1N [Compound 136, 3,6-Diamino-5-cyano-thieno[2,3-b]pyridine-2-carboxylic acid (4-sulfamoyl-phenyl)-amide] | – | > 25 |
| CCc1nnc(NC(=O)c2sc3nc(C)cc(COC)c3c2N)s1 [Compound 137, 3-Amino-4-methoxymethyl-6-methyl-thieno[2,3-b]pyridine-2-carboxylic acid (5-ethyl-[1,3,4]thiadiazol-2-yl)-amide] | – | > 25 |
| CCN(CC)C(=O)c1sc2nc3c(cc2c1N)CCC3 [Compound 138, 3-Amino-6,7-dihydro-5H-cyclopenta[b]thieno[3,2-e]pyridine-2-carboxylic acid diethylamide] | > 25 | – |
| Nc1c(C(=O)N2CCOCC2)sc2nc3c(cc12)CCCCC3 [Compound 139, (3-Amino-6,7,8,9-tetrahydro-5H-1-thia-10-aza-cyclohepta[f]inden-2-yl)-morpholin-4-yl-methanone] | > 25 | – |
| COCc1cc(C)nc2sc(C(=O)N(c3ccccc3)c3ccccc3)c(N)c12 [Compound 140, 3-Amino-4-methoxymethyl-6-methyl-thieno[2,3-b]pyridine-2-carboxylic acid diphenylamide] | > 25 | – |
| COCc1cc(C)nc2sc(C(=O)Nc3ccc(C(C)=O)cc3)c(N)c12 [Compound 141, 3-Amino-4-methoxymethyl-6-methyl-thieno[2,3-b]pyridine-2-carboxylic acid (4-acetyl-phenyl)-amide] | – | > 25 |
| CC(=O)c1cc2c(N)c(C(=O)NC34CC5CC(CC(C5)C3)C4)sc2nc1C [Compound 142, 5-Acetyl-3-amino-6-methyl-thieno[2,3-b]pyridine-2-carboxylic acid adamantan-1-ylamide] | – | > 25 |
| Cc1cccc(NC(=O)c2sc3nc(N)c(C#N)c(-c4ccc(C(C)C)cc4)c3c2N)c1C [Compound 143, 3,6-Diamino-5-cyano-4-(4-isopropyl-phenyl)-thieno[2,3-b]pyridine-2-carboxylic acid (2,3-dimethyl-phenyl)-amide] | – | > 25 |

Reference: patent US20170121344A1 (Siga Technologies, Inc., priority 2009, published 2017)
